Reference: patent US6436947B1, “Trans cyclopentanyl purine analogs useful as immunosuppressants” (Aventis Pharmaceuticals Inc., priority 1991, dated 2002)
Structures can show the parent of a compound that is named as a salt.

Columns and labels:
[1] = system: TNF-a production by peripheral blood mononuclear cells; assay: Inhibition of Tumor Necrosis Factor alpha in LPS-stimulated PBMC adherent cells (ELISA); assay type: cell-based; conditions: human PBMC adherent cells, 1 μg/ml LPS, 18 hours
Method: Peripheral blood mononuclear cells (PBMC) are isolated from venous blood collected from healthy volunteers in sodium citrate (5 ml of 3.6% sodium citrate for 45 ml of blood) by density gradient centrifugation of 5 minutes at 1500 rpm. The PBMC are resuspended in about 10 ml of RPMI-1640 with antibiotics. Approximately 2×10^6 cells of PBMC are added to tissue culture plates, incubated for 45-60 minutes at 37 C with 5% CO2, aspirated, and washed twice by adding about 0.5 ml fresh RPMI-1640 with 10% non-mitogenic FBS (RPMI complete) and shaking for 15 to 30 seconds. 1.0 ml RPMI-1640 is added per well to the remaining adherent cells, which are pretreated with test compound solution about 15 minutes prior to endotoxin stimulation (1 μg/ml lipopolysaccharide from E. coli or solvent concentrations equal to those of test compounds.
Cultures are incubated for 18 hours t 37 C in 5% CO2. Supernatants are tested from TNF-a using a commercial ELISA kit (Cistron, Pine Brook, N.J.). The IC50 is determined using SOFTmax software program.

[2] = system: endotoxin-induced septic shock in CF1 mice; assay: Mouse endotoxin lethality model (D-galactosamine/LPS); assay type: in vivo; conditions: 100 mg/kg i.p., pretreated t=-1 hr, 18 mg D-glactoseamine and 50 ng LPS, observed 8-72 hour
Method: Using the method of Silverstein, (J. Exp. Med. 173, 357 (1991)) a mouse endotoxin lethality model may be used to determine if a compound of formula (1) has the ability to inhibit endotoxin-induced septic shock which is dependent on the production of Tumor Necrosis Factor-α (TNF-α). CF1 mice pretreated at time (t)=−1 hr with drug are challenged with 18 mg of D-glactoseamine and 50 ng of LPS, then observed for death over an 8-72 hour period.

[3] = system: Major Histocompatibility complex (MHC) class II antigen levels on macrophages; assay: Regulation of MHC class II expression on macrophages from M. tuberculosis-treated rats (flow cytometry, OX-6/OX-42); assay type: cell-based, rat; conditions: 10 μM, 18 hours; positive control 59%
Method: Using the method of Edwards (J. of Cell Biochemistry 5E, 155(1991)), the ability of a compound of formula (1) to reduce Major Histocompatibility complex (MHC) class II antigen levels on macrophages (MΦ) obtained from M. tuberculosis-treated rats may be measured. Cells obtained from treated rats are plated into tissue culture for a period of 4 hours to purify adherent cells, then treated with increasing levels of drug for a period of 18 hours. After this incubation period, cells are scraped from the dishes and stained using flow cytometry analysis with various monoclonal antibodies such as OX-6 a monoclonal antibody specific for MHC class II antigens and OX-42 a monoclonal antibody specific for rat macrophages.

[4] = system: Rat macrophage antigen presentation to mBSA-reactive T-cell hybridoma / Interleukin-2 production; assay: Regulation of macrophage antigen presentation to rat T-cell hybridoma (Interleukin-2 production); assay type: cell-based
Method: Using the method of Ku (Cellular Immunology 130, (1990)), and a Lewis (LEW/N) rat T-cell hybridoma reactive with the protein methylated bovine serum albumin (mBSA), the ability of a compound of formula (1) to regulate MΦ antigen presentation in vitro may be measured. Peritoneal macrophages obtained from LEW/N rats are plated into tissue culture and treated with 100 μg of mBSA and drug. A control is prepared similarly. After a period of 18 hours the cells are washed and incubated with the T-cell hybridoma for an additional 12 hours. Supernatants from these cultures are obtained and measured for content of Interleukin-2, a T-cell derived lymphokine which is produced by activated T-cells. […] Rat macrophage antigen presentation and the subsequent production of Interleukin-2 are inhibited when drug is administered over a concentration range from 0.1 to 100 μM as illustrated in the following table.

Compound	IC50 [1] [µM]	protection against endotoxin lethality [2]	OX-6/OX-42 double positive macrophages [3] [%]	T-cell activation ([4]; 0.1 to 100 μM)	% Inhibition (antigen presentation / Interleukin-2 production) ([4]; in vitro concentration 0.1 μM) [%]	% Inhibition (antigen presentation / Interleukin-2 production) ([4]; in vitro concentration 1.0 μM) [%]	% Inhibition (antigen presentation / Interleukin-2 production) ([4]; in vitro concentration 10.0 μM) [%]	% Inhibition (antigen presentation / Interleukin-2 production) ([4]; in vitro concentration 100.0 μM) [%]
Nc1ncnc2c1ncn2[C@@H]1CCC[C@H]1O (racemic) [(±)-Trans-1-(9-adenyl)-2-hydroxycyclopentane, reference compound]	22.2							
Cl.Nc1ncnc2c1ncn2[C@@H]1CC[C@@H](O)C1 (relative stereo) [Example 1, (1R,3R)-trans-1(9-Adenyl)cyclopentan-3-ol Hydrochloride]	9	protects against endotoxin lethality	39	inhibits T-cell activation	7.6	30.9	48.7	55.3
Nc1nc(Cl)nc2c1ncn2[C@@H]1CC[C@@H](O)C1 (relative stereo) [Example 6, (1R,3R)-trans-1-[9-(6-Amino-2-chloropurinyl)]cyclopentan-3-ol Hydrochloride]	4.1							
